# *1 amine or outer side, *2 acyl side, *3 side chain or, on linkers, in order; H or OH if unused. Where a SMILES comes first, the peptide text is derived from it. Bridges are numbered along the chain shown (N, C = ends). [ ]: non-standard residue; d: D form. The star is where a group is joined. dProlinol(O-CH2CO) = O=C(COC[C@H]1CCCN1[*:1])[*:2]; N(2-Aminoethyl)Gly = O=C(CN(CCN[*:3])[*:1])[*:2]; Nle = CCCC[C@H](N)C(=O)O; Ms = CS(=O)(=O)*
# Tests used:
# A549 cells = assay: MTT viability, combination index with MEK inhibitor; assay type: cell-based
# Protocol: FIG. 69. MTI-101 plus EGFR inhibitors are synergistic in lung cancer cell lines with EGFR activating mutations, and MTI-101 plus MEK inhibitors are synergistic in cell lines arboring activating RAS or BRAFF mutations. Values indicate average calculated combination index (CI). Additive (CI=1), synergism (CI<1) and, antagonism (CI>1). […] Cell viability was measured by the MTT assay. Data generated were used to calculate a Chou and Talalay Combination Index (CI).
# [1] = tested on: CD138 cells from newly diagnosed or relapsed patients; assay: Cell death in CD138 cells enriched from bone marrow aspirates of myeloma patients, annexin V and FACS, 24 hours; assay type: cell-based, human; details: 10 μM MTI-101, 24 hours
# Protocol: FIGS. 60A-60D. CD138 cells were enriched from the bone marrow aspirates of consented newly diagnosed or relapsed patients and were treated with 10 μM MTI-101, 10 μM Chloroquine or 10 nM Bortezomib or the combination of both agents. Following 24 hours of drug treatment, dell death was measured by annexin V staining and FACS analysis.
# [2] = tested on: lung cancer (LC) cell lines; assay: High-throughput CellTiter-Blue cell viability assay in lung cancer cell lines; assay type: cell-based; details: IC50 values shown only in figure
# Protocol: FIG. 35 is a graph showing IC-50 levels of 24 lung cancer (LC) cell lines treated with cyclized HYD1 (MTI-101). The activity of c-HYD1 was screened using a high-throughput CellTiter-Blue cell viability assay. Cell viability was assessed by the ability of the remaining viable cells to bioreduce resazurin to resorufin. Resazurin is dark blue in color and has little intrinsic fluorescence until it is reduced to resorufin (579 nm Ex/584 nm Em). The change in fluorescence was measured with a Synergy 4 microplate reader (Bio-Tek Instruments, Inc.). […] IC50s were determined as the concentration of drug required for 50% reduction in growth/viability. Shown is the mean IC50 value for each lung cancer cell line tested. Experiments were repeated 2-3 times.
# FIG. 67. […] IC50 values were calculated from survival curves and the mean value is represented (n=2 independent experiments).
# H929 myeloma cells = assay type: cell-based, human; details: H929 cells
# Outline: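 Cells exposed to a peptide concentration series for 24 h; cell death read by Topro-3 staining and FACS. IC50 from linear regression of dose-response curves, mean of 3 independent experiments.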
# [3] = tested on: U937 cells co-cultured with HS-5/GFP cells; assay: Co-culture bone marrow stroma (HS-5/GFP) model of drug resistance (CAM-DR), annexin V and FACS; assay type: cell-based; details: HS-5/GFP co-culture 24 hours prior to drug
# Protocol: FIGS. 63A-63C. MTI-101 induces cell death in AML cell lines without succumbing to CAM-DR. HS-5/GFP cells were co-cultured with U937 cells for 24 hours prior to addition of 100 nM Mitoxantrone (FIG. 63A) or varying concentrations of MTI-101 (FIG. 63B). […] Cell death was measured in the GFP negative AML cells using annexin V to detect dead cells and FACS analysis. Cells cultured in suspension were used as a reference sample for drug sensitivity.
# 5TGM1 cells = assay: 5TGM1 murine in vivo myeloma model, survival; design: species or system C57BL/KaLwRij mice; details: 5TGM1 model, dosing 3× weekly for three weeks
# Protocol: FIG. 61B: 5TGM1 model: One million 5TGM1 cells were injected i.v. in C57BL/KaLwRij mice and allowed to engraft for 10 days prior to drug treatment. The dosing scheme for all drugs was 3× weekly for three weeks. Surrogate markers of morbidity include hind leg paralysis and/or lethargic behavior. All mice were euthanatized at day 100.
# One million 5TGM1 cells were injected i.v. in C57BL/KaLwRij mice and allowed to engraft for 10 days prior to drug treatment. […] The dosing scheme for melphalan was twice (day 10 and day 14).
# [4] = tested on: phospho-ERK and CD44-associated PYK2 in NCI-H929 and U266 MM cells; assay: Signal transduction in MM cells (pErk, CD44 immunoprecipitation probed for Pyk2, Src); assay type: cell-based; details: 5 uM H929 and 10 uM U226 cells
# Protocol: FIGS. 55A-55D. […] NCI-H929 and U266 were treated with 5 uM and 10 uM HM-27 respectively for various time points before whole cell lysis in RIPA buffer and probed for pErk and tErk (FIGS. 55A, 55B).
# FIGS. 58A-58D. […] MTI-101 activates ERK and Pyk2. Member of these pathways can be utilized as biomarkers of response. In addition, agents that target survival pathways can be used in combination with MTI-101 (data supporting this in AML).
# The inventors performed a total membrane binding assay with biotin conjugated HYD1 and NeutrAvidin beads on NCI-H929 and U266 MM cells. Samples were then loaded on an SDS-PAGE gel, trypsin digested, and analyzed by Liquid Chromatography-Mass Spectrometry/Mass Spectrometry (LC-MS/MS). The adhesion receptor CD44 was determined to be among the adhesion receptors that had the most peptide match hits and was confirmed as a valid hit via Western Blot analysis using biotin as a control for non-specific binding. In order to assess the binding between CD44 and HYD1, 96-well NeutrAvidin coated plates were preincubated with biotin-HYD1 before the addition of increasing concentrations of full length recombinant human CD44. For more quantitative binding affinity analysis we produced the human globular ectodomain of CD44 comprising of amino acids 20-178. […]
smiles,measurement,setting,value
CCCC[C@@H]1NC(=O)CN(S(C)(=O)=O)CCNC(=O)[C@H](CCCCN)NC(=O)[C@H](CC(C)C)NC(=O)[C@H](CCCCN)NC(=O)[C@H](CC(C)C)NC(=O)[C@H](CCCCN)NC(=O)COC[C@H]2CCCN2C(=O)[C@H](Cc2c[nH]c3ccccc23)NC(=O)[C@H](C)NC(=O)[C@H](C(C)C)NC(=O)[C@H](C(C)C)NC1=O [MTI-101] (Ms-[N(2-Aminoethyl)Gly][Nle]VVAW[dProlinol(O-CH2CO)]KLKLK; lactam 1-C),combination with MEK inhibitor Selumetinib,A549 cells,Synergistic growth
same,effect of 10 nM Bortezomib on MTI-101 activity,[1]; newly diagnosed patients,increased the activity of MTI-101 in primary patient specimens obtained from newly diagnosed patients
same,effect of 10 μM Chloroquine on MTI-101 induced cell death,[1]; relapsed myeloma patients,increased the activity of MTI-101 induced cell death in specimens obtained from relapsed myeloma patients
same,activity in primary patient specimens,[1]; relapsed vs newly diagnosed,more active in specimens obtained from relapsed multiple myeloma (MM) patients
same,growth of lung cancer cell lines,[2],inhibits the growth of several lung cancer cell lines
same,IC50,H929 myeloma cells; read-out: IC50,1200 nM
same,fold more potent than linear HYD1,H929 myeloma cells; reference of the 10- and 15-fold statements not expressly named,30 fold
same,sensitivity in co-culture versus suspension,[3],not resistant in the co-culture bone marrow stroma model of drug resistance
same,survival,5TGM1 cells,increases survival in the 5TGM1 murine in vivo model
same,phospho-ERK and CD44-associated PYK2 in MM cells,[4],induces transient phospho-ERK and CD44-associated PYK2 complex in NCI-H929 and U266 MM cells

# Source: US20150071918A1, “PEPTIDES FOR THE TREATMENT OF CANCER” (H. LEE MOFFITT CANCER CENTER AND RESEARCH INSTITUTE, INC., priority 2012, published 2015)
